Measured values from patent US10500167B2, “Droplet-embedded microfibers, and methods and devices for preparing and using same” (TRUSTEES OF PRINCETON UNIVERSITY, priority 2014, dated 2019).

Legend:
[1] = retention and selective release of cargo from alginate-in-oil-in-alginate fibers; format: physicochemical
Source text: The concentration of alginate-PVA solution in the inner alginate compartment was kept the same as the alginate fiber. As for the cargos, 0.5% (v/v) 200 nm orange fluorescent particles (FluoSpheres, Invitrogen), 1% (w/v) FITC conjugated BSA, or 0.04% (v/v) of 190 nm Dragon Green fluorescent particles (Uniform Dyed Microspheres, Bangs Laboratories, Inc.) were mixed with the alginate solution. For water-based magnetic particles, 2% (v/v) of 1 μm-magnetic polystyrene particles were mixed in the alginate solution. Chemicals not indicated with vendors were purchased from Sigma-Aldrich.
Multicompartment fibers were collected as suspensions in DI water or wound between two rotating needles controlled by a motor (Barnant Motor Mixer, Model No. 700-5412). […] For selective dissolution of the cargos from the oil compartment of the fibers, ethanol (Reagent alcohol, BDH) was added to the fiber suspensions. The de-cross-linking agent, 160 mM sodium citrate (Na3C6H5O7, Sigma-Aldrich) in DI water was used as calcium chelator to degrade the alginate fiber or inner alginate particles.
As a model particle cargo, 200 nm fluorescent nanoparticles were added to the inner alginate particle to produce fluorescent core microfibers (FIG. 2, panel a, and FIG. 8, panel a).
As a non-limiting example, ethanol was used to affect oil phase removal. The oil phase, which was a solution of mineral oil, 5% (v/v) undecanol, and 2 wt % Span 80 surfactant, was slightly miscible with ethanol, and thus was able to slowly escape the oil microcompartments in the fiber in the presence of ethanol. Alginate-in-oil-in-alginate fibers were prepared with 0.3 mg·mL^−1 of a lipophilic fluorescent dye, Nile Red, in the oil droplets, and green fluorescent nanoparticles of 190 nm diameter in the inner alginate particles; one fiber sample was immersed in water, and the second fiber sample was immersed in an ethanol/water solution.

[2] = retention and release of dissolved compounds from hydrophobic PEG-DA droplet-in-fibers; format: physicochemical
Source text: FIG. 18 illustrates hydrophobic droplet-in-fibers wrapped around needles immersed in water. On the left, the fiber precursor solution contained 76 vol % PEG250DA, 20 vol % PEG700DA and 4 vol % photoinitiator. On the right, the fiber precursor solution contained 96 vol % PEG250DA and 4 vol % photoinitiator. Both fibers contained aqueous droplets with 1 wt % erioglaucine (blue dye).

[3] = dissolution of eugenol droplets embedded in the fiber in water; format: physicochemical; conditions: 100% eugenol droplets
Description: (§1) For the oil droplet compartment, mineral oil with 2 wt % Span 80 was used in general. For solidifying inner alginate droplets to prevent them from escaping the oil compartment, 5% (v/v) of calcium chloride-saturated undecanol was mixed with the oil solution. The concentrations of the cargos to be carried in the oil compartment were 0.3 mg·mL^−1 for Nile red, 0.8% (v/v) for magnetic particles in oil-phase (EMG 909, FerroTec), and 10 and 20% (v/v) for eugenol. […] The final concentration of undecanol in the oil solution was 5% (v/v). In the case of using just eugenol for the oil compartment, 2 wt % Span 80 was added to eugenol to form stable droplets.
The previously described experiments were conducted with mineral oil as the oil phase.

[4] = system: Escherichia coli (E. Coli, S17-1λpir); experiment: antibacterial effect of eugenol oil droplets on E. coli cells encapsulated in alginate fibers; format: cell-based
Source text: For the alginate fiber, 0.5-1 wt % sodium alginate (from brown algae) with 0.1-0.25 wt % poly(vinyl alcohol) (PVA; Molecular weight, 31,000-50,000) dissolved in DI water or PBS was used. PVA is a biocompatible polymer. Also, after collecting the fibers, they were rinsed with DI water or PBS, and stored in DI water to allow any water-soluble components in the fiber to be removed. […] For cell encapsulation, the alginate-PVA solution was filtered through 0.22 μm pore-sized filter prior to mixing with cells. The mammalian cells, NIH/3T3 mouse fibroblast cells (ATCC), were cultured in Dulbecco's modified Eagle medium (DMEM; ATCC) supplemented with 10% (v/v) calf bovine serum and 1% (v/v) penicillin. The cells were prepared to be 1-2×10^5 cells·mL^−1 in the final alginate solution. For encapsulating mammalian cells in the alginate fiber, a solution of 0.5 wt % alginate with 0.1 wt % PVA dissolved in PBS was used. The bacterial cells were Escherichia coli (E. Coli, S17-1λpir) that express green fluorescent protein (GFP) from a plasmid, induced by isopropyl β-D-1-thiogalactopyranoside (IPTG). More details on the cells, including plasmid construction, is recited in Drescher, et al., 2014, Curr. Biol. 24:50. The E. coli cells were prepared in the alginate solution to be 4-5×10^6 cells·mL^−1. For encapsulating bacterial cells, a solution of 1 wt % alginate with 0.25 wt % PVA dissolved in PBS was used.
as §1
Multicompartment fibers were collected as suspensions in DI water or wound between two rotating needles controlled by a motor (Barnant Motor Mixer, Model No. 700-5412). Fibers encapsulating the fibroblast cells were collected in DMEM supplemented with 10% calf bovine serum and 1% penicillin, and stored in the 5% CO2-humidified incubator at 37° C. To test the cell viability inside the multicompartment fibers, 2 μM of calcein AM and 4 μM of ethidium-homodimer-1 (EthD-1) from LIVE/DEAD Viability/Cytotoxicity kit for mammalian cells (Molecular Probes) were applied in the DMEM 1 hour prior to the observation under a fluorescent microscope. The cell viability was analyzed with the green (calcein AM) and red (EthD-1) fluorescence images using image analysis software, ImageJ (NIH). E. coli-encapsulated fibers were either collected in LB media containing 1 mM IPTG and 100 μg·mL^−1 Kanamycin (kanamycin sulfate; Fisher). For selective dissolution of the cargos from the oil compartment of the fibers, ethanol (Reagent alcohol, BDH) was added to the fiber suspensions. The de-cross-linking agent, 160 mM sodium citrate (Na3C6H5O7, Sigma-Aldrich) in DI water was used as calcium chelator to degrade the alginate fiber or inner alginate particles.
The growth of bacterial cells, Escherichia coli (E. coli), in the oil droplet-in-alginate fibers (FIG. 2, panel d) was also tested. The E. coli cells encapsulated in the fibers were suspended in the LB medium for 21 hours, and grew well inside the fibers where they completely surrounded the oil droplets (FIG. 9). The oil microcompartments of the fiber can be used to encapsulate hydrophobic drugs or antibacterial chemicals to test their effects on the cells. For example, eugenol is an antibacterial compound found in clove oil. Eugenol was dissolved in the oil compartment, in a solution comprising mineral oil with 5% (v/v) undecanol and 2 wt % Span 80. […]

For `CCN(CC)c1ccc2nc3c4ccccc4c(=O)cc-3oc2c1` [Nile Red], the “red fluorescence in the fibers” value ([1]; ethanol/water solution, after a longer time) was “no further red fluorescence was observed in the fibers” and the “red fluorescence in the oil microcompartments” value ([1]; fiber immersed over 18 hours in water) was “red fluorescence of the Nile Red dye in the oil microcompartments was observed”.

For `CCN(Cc1cccc(S(=O)(=O)[O-])c1)c1ccc(C(=C2C=CC(=[N+](CC)Cc3cccc(S(=O)(=O)[O-])c3)C=C2)c2ccccc2S(=O)(=O)[O-])cc1.[Na+].[Na+]` [erioglaucine], the “retention of dissolved compound in aqueous droplets” value ([2]; PEG-DA (MW=250 g/mol) fiber with 4 vol % photoinitiator) was “remained within the aqueous compartments” and the “release of dye from fiber” value ([2]; fiber precursor 76 vol % PEG250DA, 20 vol % PEG700DA, 4 vol % photoinitiator, immersed in water) was “allowed the blue dye to diffuse out of the fiber”.

In the case of `C=CCc1ccc(O)c(OC)c1` [eugenol], the “diameter of eugenol droplets embedded in the fiber after dissolution” value ([3]; over a period of 2 hours) was 50 μm, the “diameter of eugenol droplets embedded in the fiber, initial” value ([3]; start) was 120 μm and the “growth of E. coli around the oil droplets” value ([4]; 20% (v/v) eugenol droplets, after 3 hours) was “slowed down around the oil droplets”. For the same molecule, the “growth of E. coli around the rim of the droplets” value ([4]; 20% (v/v) eugenol droplets, after 15 hours) was “no growth was observed around the rim of the droplets”, the “cell population around the oil droplets” value ([4]; 20% (v/v) eugenol-oil droplets) was “significant decrease in the cell population around the oil droplets” and the “cell growth around the eugenol droplets compared with oil droplets with no eugenol” value ([4]; eugenol up to 10% (v/v) in oil droplets) was “no significant difference in the cell growth”. For the same molecule, the “overall growth rate of E. coli inside the fiber” value ([4]; eugenol up to 10% (v/v) in oil droplets, qualitative) was “reduction in the overall growth rate of E. coli” and the “growth of GFP-expressing E. coli in fiber” value ([4]; up to 10% (v/v) eugenol droplets, after 15 hours) was “grew around the oil droplets and covered most of the fibers completely”.

For “fluorescein isothiocyanate (FITC) conjugated bovine serum albumin [FITC-conjugated BSA]”, the “time over which fluorescence of encapsulated cargo was observed” value ([1]; in inner alginate particle, fiber stored in DI water) was “at least 20 hours”.
